Laboratory results published in patent US20250057994A1, “LABELED COMPOUNDS AND CALCIUM SENSING RECEPTOR LIGANDS FOR IMAGING AND USES THEREOF” (The University of North Carolina at Chapel Hill, priority 2021, published 2025).

Columns and labels:
CSR = target: T1, CSR (Homo sapiens, UniProt P41180); test: Cell uptake and specific blocking assays in Hcc827 cells; conditions: blocker 100 μM
T1 sequence (P41180 20-1078): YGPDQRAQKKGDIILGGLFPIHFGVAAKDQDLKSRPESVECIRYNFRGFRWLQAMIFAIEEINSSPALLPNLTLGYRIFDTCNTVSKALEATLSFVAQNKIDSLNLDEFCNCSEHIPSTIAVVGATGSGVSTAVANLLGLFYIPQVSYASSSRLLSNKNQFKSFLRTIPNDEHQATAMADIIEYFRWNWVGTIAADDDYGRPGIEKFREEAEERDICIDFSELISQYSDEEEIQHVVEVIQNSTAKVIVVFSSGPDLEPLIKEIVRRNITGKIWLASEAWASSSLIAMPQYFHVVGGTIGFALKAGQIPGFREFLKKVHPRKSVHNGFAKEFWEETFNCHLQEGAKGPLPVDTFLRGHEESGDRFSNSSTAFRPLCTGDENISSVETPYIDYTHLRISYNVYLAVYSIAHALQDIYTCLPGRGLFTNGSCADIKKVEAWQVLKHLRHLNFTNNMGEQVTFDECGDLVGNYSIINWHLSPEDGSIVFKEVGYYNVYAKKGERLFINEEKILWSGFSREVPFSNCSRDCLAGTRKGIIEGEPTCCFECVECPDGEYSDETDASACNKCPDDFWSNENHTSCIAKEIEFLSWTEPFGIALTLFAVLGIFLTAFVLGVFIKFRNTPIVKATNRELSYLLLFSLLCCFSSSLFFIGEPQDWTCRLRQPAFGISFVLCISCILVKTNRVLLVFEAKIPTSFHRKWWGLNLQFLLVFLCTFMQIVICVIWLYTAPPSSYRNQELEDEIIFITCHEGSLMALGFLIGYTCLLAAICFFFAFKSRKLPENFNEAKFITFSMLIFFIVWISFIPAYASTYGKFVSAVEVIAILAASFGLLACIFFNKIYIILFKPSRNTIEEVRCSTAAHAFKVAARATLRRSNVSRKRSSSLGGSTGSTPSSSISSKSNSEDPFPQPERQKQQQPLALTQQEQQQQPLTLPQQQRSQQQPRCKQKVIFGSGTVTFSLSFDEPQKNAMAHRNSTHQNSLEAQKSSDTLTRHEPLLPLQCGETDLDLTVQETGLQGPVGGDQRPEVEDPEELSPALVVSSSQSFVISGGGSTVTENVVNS

[1] = In vivo acute toxicity study with overdose of cold standard; parameters: species or system JAX Swiss Outbred mice; conditions: for ALP (alkaline phosphatase) / ALT (alanine aminotransferase) / AST (aminotransferase) / BUN (blood urea nitrogen) / creatinine: mice plasma
Procedure: In vivo Toxicity study. An In vivo acute toxicity study of [^19F]F-cinacalcet was carried out in JAX Swiss Outbred mice. The mice were injected intravenously with an overdose of cold standard [^19F]F-cinacalcet (57.6 μg, ˜1000 times greater than the radiotracer [^18F]F-cinacalcet dose). Plasma samples were collected and analyzed at various time points. […] Alkaline phosphatase (ALP) and alanine transaminase (ALT) are two important biological indicators associated with liver function. […] It is very common to see a transient increase in blood AST after drug administration, which usually has no actual pathological significance. Blood urea nitrogen (BUN) and creatinine are two critical indicators for evaluating kidney function. There were no significant changes in BUN and creatinine levels in the mice injected with [^19F]F-cinacalcet compared with the vehicle controls. In addition, histopathological staining was performed on the kidney, liver, and heart tissues collected at different time points. […] The basic structures of the glomerulus, renal tubulus, liver lobule central vein, and cardiac muscle fibers remained intact.

C[C@@H](NCCCc1cccc(C(F)(F)F)c1)c1ccc(F)c2ccccc12 [[^19F]F-ZW-cinacalcet]
Block of [18F]F-ZW-cinacalcet uptake (CSR; 20 min post incubation): 89.9% | Block of [18F]F-ZW-cinacalcet uptake (CSR; other time points): More than 87% | ALP (alkaline phosphatase) ([1]; 2 weeks after overdose): 80.33 ± 9.00 U/L | ALT (alanine aminotransferase) ([1]; 2 weeks after overdose): 24.67 ± 0.94 U/L | AST (aminotransferase) ([1]; 2 weeks after overdose): 82 ± 28.6 U/L | BUN (blood urea nitrogen) ([1]; 2 weeks after overdose): 18 ± 0.82 mg/dL | creatinine ([1]; 2 weeks after overdose): 0.18 ± 0.01 mg/dL | ALP (alkaline phosphatase) ([1]; 1 h after overdose): 87.67 ± 13.70 U/L | ALT (alanine aminotransferase) ([1]; 1 h after overdose): 29.33 ± 3.10 U/L | AST (aminotransferase) ([1]; 1 h after overdose): 82.67 ± 21.68 U/L | BUN (blood urea nitrogen) ([1]; 1 h after overdose): 17 ± 1.41 mg/dL | creatinine ([1]; 1 h after overdose): 0.24 ± 0.09 mg/dL | ALP (alkaline phosphatase) ([1]; 24 h after overdose): 54 ± 9.09 U/L | ALT (alanine aminotransferase) ([1]; 24 h after overdose): 31.33 ± 9.10 U/L | AST (aminotransferase) ([1]; 24 h after overdose): 104.67 ± 45.38 U/L | BUN (blood urea nitrogen) ([1]; 24 h after overdose): 18.33 ± 1.25 mg/dL | creatinine ([1]; 24 h after overdose): 0.25 ± 0.11 mg/dL | Acute toxicity ([1]; mice, i.v. overdose 57.6 μg): no acute toxicity | Mortality and health changes ([1]; mice, i.v. overdose 57.6 μg, study period): No animal deaths and significant health changes were observed | Histopathology of kidney, liver and heart (HE staining) ([1]; mice, i.v. overdose, different time points): no obvious pathological changes
